Read-outs that look alike come from different tables or passages of the source.
What was measured:
Ba/F-BCR/ABL T315I cells = experiment: [3H]-thymidine proliferation assay, Imatinib-resistant Ba/F-BCR/ABL T315I cells; settings: 48 hours
[1] = test system: bone marrow cells transduced with BCR/ABL-expressing retroviruses; experiment: BCR/ABL-evoked myeloid colony formation assay; format: cell-based, mice; settings: rapamycin 2 nM, Imatinib 0.5 μM, UO126 2 μM alone, or all three combined; 10 days
[2] = test system: BCR/ABL-transformed primary B-lymphoblast cells; settings: 24 hours, Imatinib 1 μM, Rapamycin 10 nM; for % of viable cells in phase: G1 / % of viable cells in phase: G2/M / % of viable cells in phase: S / Total % Apoptotic: UO126 5 μM; for Total % Apoptotic: sub-G1 DNA content
Experimental: For cell cycle and apoptosis assays, live cells from randomly growing BCR/ABL-transformed B-lymphoblasts were isolated using Histopaque (Sigma). After washing twice, the cells were resuspended in regular growth medium (RPMI-containing 20% FCS and 50 μM 2-mercaptoethanol), exposed to inhibitors at the indicated concentrations for 24 hours, harvested and fixed in 70% ethanol, for 3 hours at −20 C. Fixed cells were stained with propidium iodide, and cell cycle parameters were analyzed by using FACScan and Modfit LT software.
3 million cells in media as described above and treated with the indicated drugs or left untreated for 24 hours, were fixed, stained with propidium iodide and subject to flow cytometry for cell cycle analysis.

[3] = test system: Ba/F-FLT3-ITD F691I cells; settings: 48 hours; PKC412 10 nM alone; two-drug combinations at indicated concentrations
Experimental: (§3) Cell proliferation was measured by a [^3H]-thymidine incorporation assay (see FIG. 6C).

[4] = test system: Ba/F-FLT3-ITD F691I cells
Experimental: as §3

[5] = test system: PTEN-positive human prostate cancer cells (CWR22); experiment: Proliferation (cell number, hemocytometer) of CWR22 cells; format: cell-based; settings: rapamycin at indicated concentrations alone or with Imatinib 2 μg/ml; 7 days
Experimental: PTEN-positive human prostate cancer cells (CWR22) were seeded at 30,000 cells per 6-well cluster (35 mm plate). […] Media was changed every 2 days with fresh drugs. After 7 days, cell number was determined by hemocytometer (see FIG. 9).

Erk1/2 kinases [6] = settings: 18 hours; indicated concentrations
Experimental: (§1) Cells were lysed in a buffer containing Tris-HCl (50 mM, pH 8.0), NaCl (150 mM), NP40 (1% v/v), NaF (10 mM), 2 mM sodium orthovanadate and a cocktail of protease inhibitors, as described previously (Gu et al., Mol. Cell. Biol. 20:7109 (2000)). Cell lysates containing equivalent amounts of protein ([…]) were loaded and separated by SDS-PAGE. Immunoblotting was performed using phospho-specific antibodies reactive with Thr389 of p70 S6K, Ser65 of 4E-BP1 or Thr202/Tyr204 of p44/42 Erk (Cell Signaling Technology, Beverly, Ma.). Detection was by enhanced chemiluminescence (ECL). To control for equal loading, blots were reprobed with antibodies that detect total Erk2 or p70 S6K (Santa Cruz Biotechnology).
(§2) Cell lysates were prepared and equal amounts (50 μg) of protein were resolved by SDS-PAGE followed by immunoblot analysis with the indicated phospho-specific antibodies. To control for loading, the blots were stripped and reprobed with anti-Erk2 antibodies.

p70 S6K [7] = settings: rapamycin 0.5-5 nM; 18 hours
Experimental: as §1, §2

[8] = test system: murine BCR/ABL disease model; experiment: Survival in mouse model of CML (BCR/ABL bone marrow transplantation); format: in vivo, BALB/C mice
Experimental: BALB/C donor mice were primed with intraperitoneal injection of 5′ fluorouracil (150 mg/kg). After 5 days, bone marrow cells were collected and transduced with MSCV p210 (BCR/ABL)-IRES-GFP viruses by two rounds of spinfection. After second round of transduction, cells were resuspended in Hanks balanced salt solution and injected (1×10^6 cells/0.5 ml) into the lateral tail vein of lethally irradiated (2×450 cGy) female recipient BALB/C mice. […] All animals in the trial received two gavage treatments and one IP treatment per 24 hours. Treatment was started from day 9 after bone marrow transplantation (BMT) and continued until the mice died. The log rank statistics were used to attach a significance level to the difference in the survival curves.
These mice were censored from the statistical analysis of survival. Peripheral blood was collected from the retroorbital cavity using a heparinized glass capillary. Blood smears were stained with Wright and Giemsa. Manual and automated (ADIVA 120 Hematology system, Bayer) total and differential blood cell counts were performed, as well as histopathologic exam of relevant organs (spleen, liver, heart, lungs, intestine, hindlimb bones, and kidneys). […]

4E-BP1 [9] = settings: Imatinib 0.5-4 μM or rapamycin 5 nM alone, or combined
Experimental: as §1

[10] = achieved in transplant patients; cited from earlier work
Ba/F-BCR/ABL WT cells = settings: rapamycin 5 nM; 48 hours of exposure
p70 S6K [11] = test system: p70 S6K
Experimental: as §1, §2

[12] = test system: BCR/ABL-transformed primary B lymphoblasts; settings: 24 hours; rapamycin 0.25-10 nM alone; Imatinib 0.25-4 μM alone or in combination with rapamycin 2 nM
Erk1/2 kinases [13] = settings: 18 hours; indicated concentrations; remark: listed apart in the source
Experimental: as §1, §2

4E-BP1 [14] = experiment: Immunoblot of 4E-BP1 phosphorylation in Ba/F-FLT3-ITD cells; format: cell-based
Experimental: as §1
The blots were reprobed for p70 S6 kinase and Erk2, respectively, to ensure equivalent loading.

K562 cells = experiment: [3H]-thymidine proliferation assay, K562 cells; format: cell-based, human; settings: rapamycin alone, 5 nM; 60 hours
[15] = test system: PTEN-negative human prostate cancer cells (LnCaP); experiment: Proliferation (cell number, hemocytometer) of LnCaP cells; format: cell-based; settings: rapamycin at indicated concentrations alone or with Imatinib 2 μg/ml; 7 days
Experimental: PTEN-negative human prostate cancer cells (LnCaP) were seeded at 30,000 cells per 6-well cluster (35 mm plate). […] Media was changed every 2 days with fresh drugs. After 7 days, cell number was determined by hemocytometer (see FIG. 10).

In the case of `N#CC(=C(/N)Sc1ccccc1N)/C(C#N)=C(/N)Sc1ccccc1N` [UO126], the inhibition of proliferation (Ba/F-BCR/ABL T315I cells; UO126 5 μM, Imatinib 0.5 μM, rapamycin 5 nM, alone or in combinations) is reported as “only modest inhibitory effects”, the “inhibition of BCR/ABL-evoked myeloid colony formation” value [1] is reported as 16% and the “% of viable cells in phase: G1” value [2] is reported as 44.6%. The “% of viable cells in phase: G2/M” value [2] was 3.8%, the “% of viable cells in phase: S” value [2] was 51.6% and the “Total % Apoptotic” value [2] was 4.6%.
With `CO[C@@H]1[C@H](N(C)C(=O)c2ccccc2)C[C@H]2O[C@]1(C)n1c3ccccc3c3c4c(c5c6ccccc6n2c5c31)C(=O)NC4` [PKC412] the “effect on cell proliferation” value [3] was “almost no effect”.
With Rapamycin the inhibition [4] was 68%, the “inhibitory effect on proliferation of prostate cancer cells” value [5] was “significant inhibitory effect on proliferation” and the “inhibition of Erk activation” value (Erk1/2 kinases [6]) was “did not inhibit Erk activation”. For the same compound, the “inhibition of p70 S6K activation” value (p70 S6K [7]) was “almost completely inhibited activation of p70 S6K”, the “survival versus double placebo, p (log rank)” value ([8]; Rapamycin 7.0 mg/kg/day intraperitoneal or Imatinib 70 mg/kg/day oral gavage, each plus placebo) was 0.04 and the survival ([8]; Rapamycin 7.0 mg/kg/day intraperitoneal, Imatinib 70 mg/kg/day oral gavage, from day 9 after BMT) was “survived longer than those treated with double placebo”. The inhibition of proliferation (Ba/F-BCR/ABL T315I cells; rapamycin 5 nM alone) was “about 70%”, the “inhibition of 4E-BP1 phosphorylation” value (4E-BP1 [9]) was “partial inhibition of 4E-BP1phosphorylation” and the typical serum levels [10] was 5 to 15 nM. For the same compound, the inhibition of proliferation (Ba/F-BCR/ABL WT cells) was about 60%, the “inhibition of p70 S6K phosphorylation” value (p70 S6K [11]; rapamycin 5 nM) was “totally inhibited p70 S6K phosphorylation” and the “inhibition of p70 S6K activation” value (p70 S6K [11]; rapamycin 0.5-5 nM, 18 hours) was “almost completely inhibited activation of p70 S6K”. For the same compound, the “inhibition of cell proliferation ([3H]-thymidine incorporation)” value [12] was “inhibited the proliferation of these cells at doses significantly below typical serum levels”, the “inhibition of Erk activation” value (Erk1/2 kinases [13]) was “did not inhibit Erk activation” and the “resistance of 4E-BP1 phosphorylation to rapamycin relative to p70 S6K” value (4E-BP1 [14]) was over 10 fold. The “inhibition of [3H]-thymidine incorporation” value (K562 cells) was about 25%, the “inhibitory effect on proliferation of prostate cancer cells” value [15] was “significant inhibitory effect on proliferation” and the “% of viable cells in phase: G1” value [2] was 79.9%. For the same compound, the “% of viable cells in phase: G2/M” value [2] was 1.8%, the “% of viable cells in phase: S” value [2] was 18.3% and the “Total % Apoptotic” value [2] was 8.6%. The “effect on cell cycle and apoptosis” value ([2]; alone or combined) was “G1 arrest, but no significant apoptosis”.
